Measured values reported in patent EP1980567A1, “New disaccharide-based tensides and emulsifiers” (Beiersdorf AG, priority 2005, dated 2006).

Key:
[1] = Foaming capacity and foam stability of aqueous solutions in 100 mL measuring cylinders; format: physicochemical; conditions: 50°C; immediate volume and 30 min. volume
Protocol: Messungen werden in 100 mL Meßzylindern durchgeführt. Vor Benutzung wird der Meßzylinder mit konzentrierter Nitriersäure gefüllt und 24 Stunden gelagert, danach mit bidestilliertem Wasser für weitere 24 Stunden. Lösungen werden durch Einwaage des Lipids und Zugabe von bidestilliertem Wasser bis zu einem Gesamtgewicht von 10 g (ca. 10 mL) hergestellt. Lösungen der jeweils niedrigeren Konzentration werden durch Verdünnung der ersten hergestellt. Vor der Messung wird der Meßzylinder bei der gewünschten Temperatur gelagert. Zur Schaumbildung wird der Meßzylinder 20 mal innerhalb von 30 Sekunden umgeschwenkt. Die Messung wird bis zu einer Abweichung von nicht mehr als 5 % wiederholt. Schaumvolumina werden direkt nach dem Schwenken des Zylinders (Schäumungsvermögen) und nach 30 Minuten (Schaumstabilität) bestimmt. '

[2] = Gel formation in water: phase transition temperature (Tgel) from gel to isotropic solution; format: physicochemical; conditions: for Übergangstemperatur: 0.1 Gew.%, gel up to this temperature, liquid above
Protocol: Tabelle 1: Phasenumwandlungstemperaturen (Tgel) vom Gel zur isotropen Lösung für unterschiedliche Konzentrationen an Lipid (Abweichung ± 0.5 °C). Die Verbindung bildet ein stabiles Gel und oberhalb von Tgel eine klare Lösung. Tgel ist definiert als die Temperatur bei der das Gel sich beginnt aufzulösen. Die Temperaturspanne des Übergangs beträgt im Normalfall 2 bis 5 °C.

[3] = Gel formation in dimethyl sulfoxide (DMSO) / water mixtures; format: physicochemical; set-up: key: G=Gel; Gp = Teilweise geliert; I = Isotrope Lösung; S = Fest beim Abkühlen (bedingt durch gefrorenes Lösungsmittel); conditions: 0.1 Gew.%
Protocol: Tabelle 2: Phasenumwandlungstemperaturen (Tgel) vom Gel zur isotropen Lösung für unterschiedliche Lösungsmittelzusammensetzung (Dimethylsulfoxid, DMSO und Wasser, H2O) bei gleichbleibender Lipidkonzentration (0.1 Gew.%) (Abweichung ± 0.5 °C). Die Verbindung formt klare Gele oder geliert nur teilweise, oberhalb der Übergangstemperatur bildet sie eine klare Lösung. Tgel ist definiert als die Temperatur bei der das Gel sich beginnt aufzulösen. Die Temperaturspanne des Übergangs beträgt im Normalfall 2 bis 5 °C.

[4] = Foam image and size distribution of the gas bubbles; format: physicochemical; conditions: 1 Gew.% in Wasser
Protocol: Schaumbild und Größenverteilung der Gasbläschen nach 0 min. (Abb. 2 und 3) und nach 10 min. (Abb. 4 und 5) von Lac-EG-C12 in einer Gesamtkonzentration von 1 Gew.%. in Wasser. Man erkennt, daß der Schaum zu Beginn fast ausschließlich aus Bläschen mit einer Porengröße von unter 10000 µm^2 besteht. Nach 10 min. wird die Größenverteilung etwas flacher, wobei immer noch rund ein Viertel der Bläschen eine Größe von unter 10000 µm^2 aufweist.

[5] = Foam behaviour on hair / in the hand; conditions: 1 Gew% in Wasser, with hair strands, rubbed in the hand; single component
Text: Hier zeigte sich erstaunlicherweise das die erfindungsgemäßen Verbindungen eine vergleichbare Schaumbildung auf der Haut oder dem Haar wie z.B. Laurylethersulfat zeigen, jedoch in deutlich niedrigeren Einsatzkonzentrationen. Aus den Daten für Lac-EG-C12 (Tab. 10) war nicht unbedingt zu erwarten, dass es sich in Wasser beim Verreiben des Tensids in der Hand um einen guten Schaumbildner handelt. Auch in Gegenwart von Haaren wird beim Verreiben des Tensids eine Schaumbildung beobachtet. Dazu wurde 1 Gew% der erfindungsgemäßen Substanz in Wasser in Gegenwart von Haarsträhnen gelöst und in der Hand verrieben. Der Schaum ist wesentlich feinporiger als vergleichbare Schäume von Laurylethersulfat. […] Lac-Laureth-3.

[6] = Gel formation in water: phase transition temperature (Tgel) from gel to isotropic solution; format: physicochemical

For `CCCCCCCCCCCCOCCO[C@@H]1O[C@H](CO)[C@@H](O[C@H]2O[C@H](CO)[C@@H](O)[C@H](O)[C@H]2O)[C@H](O)[C@H]1O` [Mal-EG-C12, (2'-Dodecyloxyethyl) 4-O-(α-D-glucopyranosyl)-β-D-glucopyranosid], the “Schaumbildner (comparison with SLES)” value [1] was “wesentlich bessere Schaumbildner als Natriumlauryethersulfat (SLES)”.

For `CCCCCCCCCCCCOCCO[C@@H]1O[C@H](CO)[C@@H](O[C@@H]2O[C@H](CO)[C@H](O)[C@H](O)[C@H]2O)[C@H](O)[C@H]1O` [Lac-EG-C12, (2'-Dodecyloxyethyl) 4-O-(β-D-galactopyranosyl)-β-D-glucopyranosid], the Tgel ([2]; 0.03 Gew.% (0.60 mM) in water) was 10 °C, the Tgel ([2]; 0.04 Gew.% (0.72 mM) in water) was 21 °C and the Tgel ([2]; 0.05 Gew.% (0.90 mM) in water) was 30 °C. The Tgel ([2]; 0.06 Gew.% (1.03 mM) in water) was 35 °C, the Tgel ([2]; 0.07 Gew.% (1.20 mM) in water) was 38 °C and the Tgel ([2]; 0.08 Gew.% (1.44 mM) in water) was 40 °C. For the same compound, the Tgel ([2]; 0.1 Gew.% (1.80 mM) in water) was 43 °C, the Übergangstemperatur [2] was 43 °C and the Tgel ([2]; 0.13 Gew.% (2.41 mM) in water) was 45 °C. The Tgel ([2]; 0.2 Gew.% (3.61 mM) in water) was 46 °C, the Tgel ([2]; 0.5 Gew.% (9.02 mM) in water) was 48 °C and the Tgel ([2]; 1 Gew.% (18.04 mM) in water) was 50 °C. For the same compound, the Tgel ([2]; 5 Gew.% (90.20 mM) in water) was 51 °C, the Tgel ([2]; 10 Gew.% (180.40 mM) in water) was 51 °C and the Gelbildungsverhalten ([3]; H2O /DMSO 1:9, 4 °C) was “I”. For the same compound, the Gelbildungsverhalten ([3]; H2O /DMSO 1:9, 20 °C) was “I”, the Gelbildungsverhalten ([3]; H2O /DMSO 1:9, -27 °C) was “S” and the Gelbildungsverhalten ([3]; H2O /DMSO 2:8, 4 °C) was “I”. For the same compound, the Gelbildungsverhalten ([3]; H2O /DMSO 2:8, 20 °C) was “I”, the Gelbildungsverhalten ([3]; H2O /DMSO 2:8, -27 °C) was “S” and the Gelbildungsverhalten ([3]; H2O /DMSO 3:7, 4 °C) was “Gp”. For the same compound, the Gelbildungsverhalten ([3]; H2O /DMSO 3:7, 20 °C) was “I”, the Gelbildungsverhalten ([3]; H2O /DMSO 3:7, -27 °C) was “S” and the Gelbildungsverhalten ([3]; H2O /DMSO 4:6, 4 °C) was “G”. The Gelbildungsverhalten ([3]; H2O /DMSO 4:6, 20 °C) was “G”, the Gelbildungsverhalten ([3]; H2O /DMSO 4:6, 39 °C) was “Gp” and the Gelbildungsverhalten ([3]; H2O /DMSO 4:6, 50 °C) was “I”. For the same compound, the Gelbildungsverhalten ([3]; H2O /DMSO 4:6, -27 °C) was “S”, the Gelbildungsverhalten ([3]; H2O /DMSO 5:5, 4 °C) was “G” and the Gelbildungsverhalten ([3]; H2O /DMSO 5:5, 20 °C) was “G”. The Gelbildungsverhalten ([3]; H2O /DMSO 5:5, 39 °C) was “G”, the Gelbildungsverhalten ([3]; H2O /DMSO 5:5, 50 °C) was “I” and the Gelbildungsverhalten ([3]; H2O /DMSO 5:5, -27 °C) was “G”. The Gelbildungsverhalten ([3]; H2O /DMSO 6:4, 4 °C) was “G”, the Gelbildungsverhalten ([3]; H2O /DMSO 6:4, 20 °C) was “G” and the Gelbildungsverhalten ([3]; H2O /DMSO 6:4, 39 °C) was “G”. For the same compound, the Gelbildungsverhalten ([3]; H2O /DMSO 6:4, 50 °C) was “I”, the Gelbildungsverhalten ([3]; H2O /DMSO 6:4, -27 °C) was “S” and the Gelbildungsverhalten ([3]; H2O /DMSO 7:3, 4 °C) was “G”. The Gelbildungsverhalten ([3]; H2O /DMSO 7:3, 20 °C) was “G”, the Gelbildungsverhalten ([3]; H2O /DMSO 7:3, 39 °C) was “G” and the Gelbildungsverhalten ([3]; H2O /DMSO 7:3, 50 °C) was “I”. The Gelbildungsverhalten ([3]; H2O /DMSO 7:3, -27 °C) was “S”, the Gelbildungsverhalten ([3]; H2O /DMSO 8:2, 4 °C) was “G” and the Gelbildungsverhalten ([3]; H2O /DMSO 8:2, 20 °C) was “G”. For the same compound, the Gelbildungsverhalten ([3]; H2O /DMSO 8:2, 39 °C) was “G”, the Gelbildungsverhalten ([3]; H2O /DMSO 8:2, 50 °C) was “I” and the Gelbildungsverhalten ([3]; H2O /DMSO 8:2, -27 °C) was “S”. For the same compound, the Gelbildungsverhalten ([3]; H2O /DMSO 9:1, 4 °C) was “G”, the Gelbildungsverhalten ([3]; H2O /DMSO 9:1, 20 °C) was “G” and the Gelbildungsverhalten ([3]; H2O /DMSO 9:1, 39 °C) was “G”. The Gelbildungsverhalten ([3]; H2O /DMSO 9:1, 50 °C) was “I”, the Gelbildungsverhalten ([3]; H2O /DMSO 9:1, -27 °C) was “S” and the “Schaumbildner (comparison with SLES)” value [1] was “wesentlich bessere Schaumbildner als Natriumlauryethersulfat (SLES)”. The “Porengröße der Bläschen” value ([4]; 0 min., almost all bubbles) was under 10000 µm^2, the “Anteil der Bläschen mit einer Größe von unter 10000 µm^2” value ([4]; nach 10 min.) was “ein Viertel” and the “Schaumbildung auf Haar / in der Hand” value [5] was “bester Schaumbildner”. For the same compound, the Gelbildung ([6]; 11 Gew.% Laurylethersulfat to 4 Gew.% of the β-anomer) was “Gelbildung aber wieder einsetzt”, the Gelbildung ([6]; mixture of 13 Gew% Laurylethersulfat with 2 Gew.% of the β-anomer) was “kein Gel mehr bildet” and the “Anteil an α-Anomer, ab dem die Gelbildung durch das β-Anomer aufgehoben wird” value ([6]; mixture of α- and β-anomer) was over 80 Gew.%.

For `CCCCCCCCCCCCOCCO[C@@H]1O[C@H](CO[C@H]2O[C@H](CO)[C@H](O)[C@H](O)[C@H]2O)[C@@H](O)[C@H](O)[C@H]1O` [Mel-EG-C12, (2'-Dodecyloxyethyl) 6-O-(α-D-galactopyranosyl)-β-D-glucopyranosid], the “Schaumbildner (comparison with SLES)” value [1] was “wesentlich bessere Schaumbildner als Natriumlauryethersulfat (SLES)”.

Work on `CCCCCCCCCCCCOC(C)CO[C@@H]1O[C@H](CO)[C@@H](O[C@@H]2O[C@H](CO)[C@H](O)[C@H](O)[C@H]2O)[C@H](O)[C@H]1O` (stereo partly drawn) [Lac-PG-C12, (2'-Dodecyloxypropyl) 4-0-(β-D-galactopyranosyl)-β-D-glucopyranosid] yielded a Übergangstemperatur [2] of 41 °C.

With `CCCCCCCCCCCCOCCO[C@H]1O[C@H](CO)[C@@H](O[C@@H]2O[C@H](CO)[C@H](O)[C@H](O)[C@H]2O)[C@H](O)[C@H]1O` [Lac-α-EG-C12, (2'-Dodecyloxyethyl) 4-O-(β-D-galactopyranosyl)-α-D-glucopyranosid] the Gelbildung ([2]; in water) was “kein Gel bildet”.
